Tests used:
[1] = test system: Gem119 (ex vivo spheroids of an HRD-positive high-grade serous ovarian cancer); assay: cell viability relative to untreated control (ex vivo patient spheroids); higher = less cytotoxic; details: 72 h
Method: (§1)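 Ex vivo 3D spheroid cultures from dissociated tumours of HGSOC patients (DET3CT platform) were treated for 72 h with dose matrices of carboplatin combined with birinapant or vorinostat (nM). Live (TMRM) and dead (POPO-1) cells were imaged and viability was expressed as % of untreated control.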

[2] = test system: Gem129 (ex vivo spheroids of an HRD-positive high-grade serous ovarian cancer); assay: as above; details: 72 h
Method: as §1

O=C(O)C1(C(=O)O)CCC1.[NH2-].[NH2-].[Pt+2] [Carboplatin] + CC[C@H](NC(=O)[C@H](C)NC)C(=O)N1C[C@@H](O)C[C@H]1Cc1c(-c2[nH]c3cc(F)ccc3c2C[C@@H]2C[C@H](O)CN2C(=O)[C@H](CC)NC(=O)[C@H](C)NC)[nH]c2cc(F)ccc12 [Birinapant]
cell viability [%]
Details | partner drug concentration 0 nM | partner drug concentration 0.1 nM | partner drug concentration 1 nM | partner drug concentration 10 nM | partner drug concentration 100 nM | partner drug concentration 1000 nM
[1], carboplatin concentration 10 nM | – | 83.3 | 107 | 102 | 90.8 | 67.6
[1], carboplatin concentration 100 nM | – | 83.6 | 112 | 74.4 | 90.8 | 66.8
[1], carboplatin concentration 1000 nM | – | 111 | 107 | 100 | 117 | 86
[1], carboplatin concentration 10000 nM | 112 | 96.4 | 72.9 | 116 | 110 | 81.3
[1], carboplatin concentration 100000 nM | 75.9 | 65.3 | 86.1 | 54.4 | 69.5 | 62.6
[2], carboplatin concentration 10 nM | – | 105 | 82.3 | 101 | 87.1 | 76.2
[2], carboplatin concentration 100 nM | – | 94.9 | 97.3 | 96 | 89.5 | 96.1
[2], carboplatin concentration 1000 nM | – | 96.4 | 100 | 92.5 | 86.2 | 73.2
[2], carboplatin concentration 10000 nM | 80.4 | 86.7 | 95.8 | 86.7 | 90.5 | 67.4
[2], carboplatin concentration 100000 nM | 57.5 | 57.3 | 31.2 | 29.8 | 27.8 | 19.6

O=C(O)C1(C(=O)O)CCC1.[NH2-].[NH2-].[Pt+2] [Carboplatin] + O=C(CCCCCCC(=O)Nc1ccccc1)NO [Vorinostat]
cell viability [%]
Details | partner drug concentration 0 nM | partner drug concentration 1 nM | partner drug concentration 10 nM | partner drug concentration 100 nM | partner drug concentration 1000 nM | partner drug concentration 10000 nM
[1], carboplatin concentration 10 nM | 102 | 90 | 102 | 93.8 | 93 | 26.9
[1], carboplatin concentration 100 nM | 124 | 105 | 103 | 118 | 94.6 | 45.7
[1], carboplatin concentration 1000 nM | 99.4 | 110 | 92 | 110 | 92.7 | 30.3
[1], carboplatin concentration 10000 nM | 112 | 93.7 | 96.1 | 70.3 | 100 | 17.2
[1], carboplatin concentration 100000 nM | 75.9 | 50.1 | 81.2 | 44.7 | 58.9 | 9.6
[2], carboplatin concentration 10 nM | 95.8 | 104 | 37.5 | 107 | 87.6 | 80.2
[2], carboplatin concentration 100 nM | 82.8 | 104 | 102 | 97.6 | 91.9 | 77.7
[2], carboplatin concentration 1000 nM | 86 | 109 | 108 | 98.1 | 81.2 | 77.3
[2], carboplatin concentration 10000 nM | 80.4 | 97.8 | 90.4 | 90.4 | 87.5 | 59.6
[2], carboplatin concentration 100000 nM | 57.5 | 35.8 | 41.7 | 33.9 | 25.8 | 3.4
